Literature values as cited in patent US20130095180A1, “TIME-DELAYED SUSTAINED RELEASE PHARMACEUTICAL COMPOSITION COMPRISING DAPOXETINE FOR ORAL ADMINISTRATION” (NAVIPHARM. CO., LTD., priority 2010, published 2013).

Conditions: background characteristics of the drug

Half Life [h] | Tmax | Structure (SMILES)
5 to 11 | 0.3 to 0.5 h | COc1ccc(CN=c2[nH]c(N3CCC[C@H]3CO)ncc2C(=O)NCc2ncccn2)cc1Cl [Avanafil]
– | about 1 hour | CN(C)[C@@H](CCOc1cccc2ccccc12)c1ccccc1 [Dapoxetine, (S)-(+)-N,N-dimethyl-1-phenyl-3-(1-Naphthalenyloxy)-propaneamine]

Further lines, the compound ahead of its results:

Structure (SMILES) | Half Life [h] | Tmax
CCCc1nn(C)c2c(=O)[nH]c(-c3cc(S(=O)(=O)N4CCN(C)CC4)ccc3OCC)nc12 [Sildenafil] | 3 to 4 | –
CCCOc1ccc(S(=O)(=O)NCCC2CCCN2C)cc1-c1nc2c(CCC)nn(C)c2c(=O)[nH]1 (centres unmarked) [Udenafil] | 7 to 12 | 1 h
CCCc1nc(C)c2c(=O)[nH]c(-c3cc(S(=O)(=O)N4CCN(CC)CC4)ccc3OCC)nn12 [Vardenafil] | 4 to 5 | 0.7 h
